According to patent US6737383B1, “Herbicidal oxadiazolidines” (priority 1999, dated 2004):

Columns and labels:
[1] = system: morningglory; test: Test B pre/postemergence morningglory; assay type: in vivo, Ipomoea hederacea; conditions: for Morningglory plant response rating: Postemergence; for Plant response rating, Morningglory: Preemergence
In short: (§1)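 Test chemicals in a non-phytotoxic solvent mixture with surfactant were sprayed preemergence onto planted seeds and postemergence onto plants 2 to 18 cm tall (1- to 4-leaf stage). After twelve to sixteen days in a greenhouse, injury was visually rated against untreated controls from 0 (no effect) to 10 (complete control).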

[2] = system: rice; test: Test B flood test rice; assay type: in vivo, Oryza sativa
In short: (§2)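 Each value is a visual injury score relative to controls, with 10 meaning complete control and 0 no effect. Evaluation took place twelve to sixteen days after the 2-leaf-stage plants were treated and kept in the greenhouse.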

[3] = system: bedstraw; test: Test B pre/postemergence bedstraw; assay type: in vivo, Galium aparine
In short: as §1

[4] = system: surinam grass; test: Test B pre/postemergence surinam grass; assay type: in vivo, Brachiaria decumbens
In short: as §1

[5] = system: purple nutsedge; test: Test B pre/postemergence purple nutsedge; assay type: in vivo, Cyperus rotundus
In short: as §1

[6] = system: pigweed; test: Test B pre/postemergence pigweed; assay type: in vivo, Amaranthus retroflexus
In short: as §1

[7] = system: cocklebur; test: Test B pre/postemergence cocklebur; assay type: in vivo, Xanthium strumarium
In short: as §1

[8] = system: corn; test: Test B pre/postemergence corn; assay type: in vivo, Zea mays; conditions: for Corn plant response rating: Postemergence; for Plant response rating, Corn: Preemergence
In short: as §1

[9] = system: rape; test: Test B pre/postemergence rape; assay type: in vivo, Brassica napus
In short: as §1

[10] = system: bamyardgrass; test: Test B flood test barnyardgrass; assay type: in vivo, Echinochloa crus-galli
In short: as §2

[11] = system: duck salad; test: Test B flood test duck salad; assay type: in vivo, Heteranthera limosa
In short: as §2

[12] = system: blackgrass; test: Test B pre/postemergence blackgrass; assay type: in vivo, Alopecurus myosuroides
In short: as §1

[13] = system: giant foxtail; test: Test B pre/postemergence giant foxtail; assay type: in vivo, Setaria faberii
In short: as §1

[14] = system: sugar beet; test: Test B pre/postemergence sugar beet; assay type: in vivo, Beta vulgaris
In short: as §1

[15] = system: velvetleaf; test: Test B pre/postemergence velvetleaf; assay type: in vivo, Abutilon theophrasti
In short: as §1

[16] = Rate 62 g/ha, scale 0 to 10, 0 is no effect, 10 is complete control
[17] = Rate 250 g/ha, scale 0 to 10, 0 no effect, 10 complete control
[18] = Rate 125 g/ha, scale 0 to 10 (0 no effect, 10 complete control)
[19] = Rate 250 g/ha, scale of 0 to 10 where 0 is no effect and 10 is complete control
[20] = Rate 125 g/ha, scale 0 to 10, 0 no effect, 10 complete control
[21] = Rate 500 g/ha, scale 0 to 10, 0 no effect, 10 complete control
[22] = Postemergence, Rate 62 g/ha, scale 0 to 10, 0 is no effect, 10 is complete control
[23] = Rate 125 g/ha, Postemergence section (flood test species), scale 0 to 10, 0 no effect, 10 complete control
[24] = Rate 500 g/ha, listed under Postemergence (flood test species), scale 0 to 10, 0 no effect, 10 complete control
[25] = flood test, listed under Postemergence, Rate 250 g/ha, scale 0 to 10, 0 no effect, 10 complete control
[26] = Postemergence, Rate 250 g/ha, scale 0 to 10, 0 no effect, 10 complete control
[27] = Preemergence, Rate 62 g/ha, scale 0 to 10, 0 is no effect, 10 is complete control
[28] = Preemergence, Rate 125 g/ha, scale 0 to 10 (0 no effect, 10 complete control)
[29] = Preemergence, Rate 250 g/ha, scale of 0 to 10 where 0 is no effect and 10 is complete control
[30] = Preemergence, Rate 500 g/ha, scale 0 (no effect) to 10 (complete control)
[31] = Rate 125 g/ha, Postemergence, scale 0 to 10, 0 no effect, 10 complete control
[32] = Rate 500 g/ha, Postemergence, scale 0 to 10, 0 no effect, 10 complete control

Cc1cccc(Cl)c1-n1c(=O)on(C(=O)N(c2ccc(Cl)cc2)C(C)C)c1=O [Compound 54]
Morningglory plant response rating [1, 16]: 0 | Morningglory plant response rating [1, 17]: 2 | Plant response rating, Morningglory [1, 16]: 0 | Plant response rating, Morningglory [1, 18]: 0 | Plant response rating, Morningglory [1, 19]: 0 | Morningglory plant response rating [1, 20]: 0 | Morningglory plant response rating [1, 21]: 2 | Rice plant response rating [2, 22]: 0 | Rice plant response rating [2, 23]: 0 | Rice plant response rating [2, 24]: 0 | Rice plant response rating [2, 25]: 0 | Bedstraw plant response rating [3, 22]: 0 | Bedstraw plant response rating [3, 26]: 4 | Plant response rating, Bedstraw [3, 27]: 0 | Plant response rating, Bedstraw [3, 28]: 0 | Plant response rating, Bedstraw [3, 29]: 0 | Bedstraw plant response rating [3, 30]: — — 0 0 0 | Bedstraw plant response rating [3, 31]: 0 | Bedstraw plant response rating [3, 32]: 7 | B. signalgrass plant response rating [4, 22]: 0 | B. signalgrass plant response rating [4, 26]: 0 | Plant response rating, B. signalgrass [4, 27]: 0 | Plant response rating, B. signalgrass [4, 28]: 0 | Plant response rating, B. signalgrass [4, 29]: 0 | B. signalgrass plant response rating [4, 30]: 2 | B. signalgrass plant response rating [4, 31]: 0 | B. signalgrass plant response rating ([4]; Rate 500 g/ha, Postemergence, scale of 0 to 10 where 0 is no effect and 10 is complete control): 0 | Nutsedge plant response rating [5, 22]: 0 | Nutsedge plant response rating [5, 26]: 0 | Plant response rating, Nutsedge [5, 27]: 0 | Plant response rating, Nutsedge [5, 28]: 0 | Plant response rating, Nutsedge [5, 29]: 0 | Nutsedge plant response rating [5, 30]: 0 | Nutsedge plant response rating [5, 31]: 0 | Nutsedge plant response rating [5, 32]: 0 | Redroot pigweed plant response rating [6, 22]: 0 | Redroot pigweed plant response rating [6, 26]: 2 | Plant response rating, Redroot pigweed [6, 27]: 0 | Plant response rating, Redroot pigweed [6, 28]: 0 | Plant response rating, Redroot pigweed [6, 29]: 0 | Redroot pigweed plant response rating [6, 30]: 0 | Redroot pigweed plant response rating [6, 31]: 0 | Redroot pigweed plant response rating [6, 32]: 4 | Cocklebur plant response rating [7, 22]: 0 | Cocklebur plant response rating [7, 26]: 0 | Plant response rating, Cocklebur [7, 27]: 0 | Plant response rating, Cocklebur [7, 28]: 0 | Plant response rating, Cocklebur [7, 29]: 0 | Cocklebur plant response rating [7, 30]: — 0 0 0 0 | Cocklebur plant response rating [7, 31]: 0 | Cocklebur plant response rating [7, 32]: 2 | Corn plant response rating [8, 16]: 0 | Corn plant response rating [8, 17]: 0 | Plant response rating, Corn [8, 16]: 0 | Plant response rating, Corn [8, 18]: 0 | Plant response rating, Corn [8, 19]: 0 | Corn plant response rating [8, 20]: 0 | Corn plant response rating [8, 21]: 0 | Rape plant response rating [9, 22]: 0 | Rape plant response rating [9, 26]: 0 | Plant response rating, Rape [9, 27]: 0 | Plant response rating, Rape [9, 28]: 0 | Plant response rating, Rape [9, 29]: 0 | Rape plant response rating [9, 30]: 0 | Rape plant response rating [9, 31]: 0 | Rape plant response rating [9, 32]: 0 | Barnyardgrass plant response rating [10, 22]: 0 | Barnyardgrass plant response rating [10, 23]: 0 | Barnyardgrass plant response rating [10, 24]: 0 | Barnyardgrass plant response rating [10, 25]: 0 | Ducksalad plant response rating [11, 22]: 0 | Ducksalad plant response rating [11, 23]: 0 | Ducksalad plant response rating [11, 24]: 0 | Ducksalad plant response rating [11, 25]: 0 | Blackgrass plant response rating [12, 22]: 0 | Blackgrass plant response rating [12, 26]: 0 | Plant response rating, Blackgrass [12, 27]: 0 | Plant response rating, Blackgrass [12, 28]: 0 | Plant response rating, Blackgrass [12, 29]: 0 | Blackgrass plant response rating [12, 30]: 2 | Blackgrass plant response rating [12, 31]: 0 | Blackgrass plant response rating [12, 32]: 2 | Giant foxtail plant response rating [13, 22]: 3 | Giant foxtail plant response rating [13, 26]: 3 | Plant response rating, Giant foxtail [13, 27]: 2 | Plant response rating, Giant foxtail [13, 28]: 3 | Plant response rating, Giant foxtail [13, 29]: 3 | Giant foxtail plant response rating [13, 30]: 7 | Giant foxtail plant response rating [13, 31]: 3 | Giant foxtail plant response rating [13, 32]: 5 | Sugarbeets plant response rating [14, 22]: 0 | Sugarbeets plant response rating [14, 26]: 0 | Plant response rating, Sugarbeets [14, 27]: 0 | Plant response rating, Sugarbeets [14, 28]: 0 | Plant response rating, Sugarbeets [14, 29]: 0 | Sugarbeets plant response rating [14, 30]: 0 | Sugarbeets plant response rating [14, 31]: 0 | Sugarbeets plant response rating [14, 32]: 0 | Velvetleaf plant response rating [15, 22]: 0 | Velvetleaf plant response rating [15, 26]: 0 | Plant response rating, Velvetleaf [15, 27]: 0 | Plant response rating, Velvetleaf [15, 28]: 0 | Plant response rating, Velvetleaf [15, 29]: 0 | Velvetleaf plant response rating [15, 30]: 0 | Velvetleaf plant response rating [15, 31]: 0 | Velvetleaf plant response rating [15, 32]: 0
